What was measured:
[1] = system: BON cells; test: Guava Nexin apoptosis assay (Annexin V / 7-AAD); type: cell-based, human; conditions: 6 hours after treatment with staurosporin, % of Total
[2] = system: BON cells; test: Guava Nexin apoptosis assay (Annexin V / 7-AAD); type: cell-based, human; conditions: 6 hours after treatment with staurosporin, % of Total; remark: listed apart in the source
Method: Cells were then switched to growth media without FBS and allowed to grow for another 24 hours before applying treatments. Samples were collected and counted in accordance with Guava Technologies' Viacount Flex (Cat#4500-0110) instructions. At the end of each antibody treatment, cells were dissociated from the plate using 1× trypsin-EDTA (Invitrogen Cat#2520). […] Next, phosphate buffer solution (D-PBS) (Invitrogen Cat#14190-144) (Invitrogen) was used as the exchange buffer to resuspend the cell pellet. […] Detection was achieved by using Guava PCA96 instrument and data was analysed by using Guava Nexin software module as (Cat#0500-0250). […] Following the protocol for the Guava Nexin™ assay (Guava Technologies), two different dyes were used to stain for cells undergoing apoptosis: 7-AAD stains for dead and late apoptosis cells (upper right quadrant of each graph in FIG. 10), and Annexin V stains for cells undergoing apoptosis from the early stage (lower right quadrant of each graph in FIG. 10). […] Once every 24 hours for 72 hours (FIGS. 10B, 10C and 10D), cells were collected and tested for apoptosis status using the Guava Nexin™ assay (Guava Technologies).

CN[C@@H]1C[C@H]2O[C@@](C)([C@@H]1OC)n1c3ccccc3c3c4c(c5c6ccccc6n2c5c31)C(=O)NC4 [Staurosporine]
Annexin V+ [1]: 52.3% | Nuclear Debris (Upper Left Quadrant) [1]: 1.0% | Early apoptotic cells (Lower Right Quadrant) [2]: 28.7% | Late apoptotic cells (Upper Right Quadrant) [2]: 23.7% | Live, healthy cells (Lower Left Quadrant) [2]: 46.7%

Source: patent US20090016989A1, “ANTIBODIES TO HUMAN SOMATOSTATIN RECEPTOR AND METHODS OF USE” (priority 2007, published 2009)
